We go through six compounds from PMC4856313 (PLoS Pathogens, 2016).

The subject of series [1] is CC(=O)N[C@H]1[C@@H](OP(=O)(O)OP(=O)(O)OC[C@H]2O[C@@H](n3ccc(=O)[nH]c3=O)[C@H](O)[C@@H]2O)O[C@H](CO)[C@@H](O)[C@@H]1O. In words: purified protein. The following applies: forward reaction, 10 mM NaPi, 50 mM NaCl, pH 8.0, 30°C, MnaA-His6.
In series [2] the test system is CC(=O)N[C@@H]1[C@@H](OP(=O)(O)OP(=O)(O)OC[C@H]2O[C@@H](n3ccc(=O)[nH]c3=O)[C@H](O)[C@@H]2O)O[C@H](CO)[C@@H](O)[C@@H]1O. Nature of the series: purified protein. Particulars: reverse reaction, 10 mM NaPi, 50 mM NaCl, pH 8.0, 30°C, MnaA-His6.
A further series has as its target T1, MnaA (Staphylococcus aureus, UniProt Q9REV4).
T1 construct: MnaA-His6 in the activity assays; purification in supplement (S1 Text); dimer in crystal; residues from 376 to the C-terminus not modelled
Nature of the series: X-ray crystal structure, […] Å. In kind it is binding. The following applies: 4 mM Na2UDP added; one UDP per chain; also co-purified with the protein.

Series [3] deals with T2, Staphylococcus epidermidis MRSE CLB26329.
T2 construct: CLB26329 (MRSE), parental wild type
Nature of the series: microbe, parasite or virus in culture. On the set-up: minimum inhibitory concentration of antibiotics against staphylococcal strains. An excerpt:
(§1) Minimum inhibitory concentrations (MIC; μg ml^-1) of β-lactams imipenem (IPM), nafcillin (Naf), and dicloxacillin (Dic) are provided. […] To directly evaluate the consequence of these mnaA mutations, WTA of the corresponding mutants was extracted and polymer levels visualized on an alcian blue-silver stained SDS PAGE gel (Fig 3A and S1 Fig).

Series [4] has as its system T3, Staphylococcus aureus MRSA COL.
T3 construct: COL (MRSA), parental wild type
Nature of the series: microbe, parasite or virus in culture. On the set-up: minimum inhibitory concentration of antibiotics against staphylococcal strains.
From the text: as §1

Setting [5] is: read-out: MIC (µg ml-1) / Vanco.

Values after ≈ are worked out from the molar mass of the structure shown. Where two headings read alike, the source gives them in different places. Some results are limits rather than exact numbers.

T1 sequence (Q9REV4 entry or part of it): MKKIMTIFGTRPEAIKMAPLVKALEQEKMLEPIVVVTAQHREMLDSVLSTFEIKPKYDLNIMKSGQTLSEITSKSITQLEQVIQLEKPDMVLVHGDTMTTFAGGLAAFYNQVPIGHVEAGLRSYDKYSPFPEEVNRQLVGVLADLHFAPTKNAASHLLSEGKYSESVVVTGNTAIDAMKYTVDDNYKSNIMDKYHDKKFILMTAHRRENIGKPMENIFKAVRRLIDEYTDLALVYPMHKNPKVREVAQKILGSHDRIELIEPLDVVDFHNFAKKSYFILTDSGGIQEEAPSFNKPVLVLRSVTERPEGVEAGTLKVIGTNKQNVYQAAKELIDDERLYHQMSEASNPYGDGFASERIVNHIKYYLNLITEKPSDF

MnaA (Staphylococcus aureus): the Km (commonly the substrate concentration at which the rate is half of its maximum) in series [1] stood at 411 ± 57 µM; in series [2], 131 ± 21 µM.

As for `O=c1ccn([C@@H]2O[C@H](COP(=O)(O)OP(=O)(O)O)[C@@H](O)[C@H]2O)c(=O)[nH]1` [UDP], the “X-ray crystal structure, 1.9 Å” value at MnaA is listed as “The model also contains one molecule of UDP per chain”.

Regarding `Cc1onc(-c2c(Cl)cccc2Cl)c1C(=O)N[C@@H]1C(=O)N2[C@@H]1SC(C)(C)[C@@H]2C(=O)O` [dicloxacillin], the MIC in series [3] (read-out: MIC (µg ml-1) / Dic) and in series [4] (read-out: MIC (µg ml-1) / Dic) was greater than 64 mg/L in each case.

In the case of `CN[C@H](CC(C)C)C(=O)N[C@H]1C(=O)N[C@@H](CC(N)=O)C(=O)N[C@H]2C(=O)N[C@H]3C(=O)N[C@H](C(=O)N[C@H](C(=O)O)c4cc(O)cc(O)c4-c4cc3ccc4O)[C@H](O)c3ccc(c(Cl)c3)Oc3cc2cc(c3O[C@@H]2O[C@H](CO)[C@@H](O)[C@H](O)[C@H]2O[C@H]2C[C@](C)(N)[C@H](O)[C@H](C)O2)Oc2ccc(cc2Cl)[C@H]1O` [vancomycin], the MIC is 4 mg/L (≈ 2.76 µM) in series [3] (setting [5]) and 2 mg/L (≈ 1.38 µM) in series [4] (setting [5]).

On to `C[C@@H](O)[C@H]1C(=O)N2C(C(=O)O)=C(SCCNC=N)C[C@H]12` [imipenem], for which the results for the MIC in series [3] (read-out: MIC (µg ml-1) / IPM) and in series [4] (read-out: MIC (µg ml-1) / IPM) were 64 mg/L (≈ 214 µM) and 32 mg/L (≈ 107 µM), respectively.

`CCOc1ccc2ccccc2c1C(=O)N[C@@H]1C(=O)N2[C@@H]1SC(C)(C)[C@@H]2C(=O)O` [nafcillin]: the MIC in series [3] (read-out: MIC (µg ml-1) / Naf) and in series [4] (read-out: MIC (µg ml-1) / Naf) was greater than 64 mg/L in each case.
